The values that follow come from patent publication US20250144094A1 (Erasca, Inc., priority 2021, published 2025).

The target in the assay is Recombinant human ULK1 (1-649) (Homo sapiens (Human), UniProt O75385). The assay can be described thus: ULK1 ADP Glo kinase activity assay (MBP substrate). The following applies: 25° C., 40 minutes, read-out: ULK1 biochemical IC50. In short, it runs like this: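 GST-tagged ULK1 (1-649) from Sf9 cells phosphorylated MBP, with ATP, for 40 min at 25 °C across a 12-point series from 10 uM. ADP formed was quantified by ADP-Glo luminescence against DMSO controls. IC50 came from a four-parameter variable-slope fit of log concentration.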
Chain of Recombinant human ULK1 (1-649) (O75385 1-649): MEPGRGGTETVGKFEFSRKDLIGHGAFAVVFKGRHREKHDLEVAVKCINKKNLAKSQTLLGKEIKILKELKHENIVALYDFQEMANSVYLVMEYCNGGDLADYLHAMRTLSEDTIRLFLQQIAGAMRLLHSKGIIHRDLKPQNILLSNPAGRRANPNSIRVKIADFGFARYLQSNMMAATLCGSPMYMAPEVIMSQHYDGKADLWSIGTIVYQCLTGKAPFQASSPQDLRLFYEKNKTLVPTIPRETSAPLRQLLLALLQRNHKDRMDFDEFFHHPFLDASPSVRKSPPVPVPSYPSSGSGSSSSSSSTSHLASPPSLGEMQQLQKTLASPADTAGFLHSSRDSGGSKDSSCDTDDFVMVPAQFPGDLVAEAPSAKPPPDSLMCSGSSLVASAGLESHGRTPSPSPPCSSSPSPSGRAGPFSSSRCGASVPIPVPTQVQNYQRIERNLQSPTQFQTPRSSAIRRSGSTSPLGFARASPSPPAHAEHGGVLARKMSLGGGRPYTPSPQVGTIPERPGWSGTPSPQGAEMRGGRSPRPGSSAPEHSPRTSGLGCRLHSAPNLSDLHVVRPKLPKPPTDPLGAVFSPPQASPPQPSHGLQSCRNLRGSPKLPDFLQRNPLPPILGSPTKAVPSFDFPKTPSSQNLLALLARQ
Background: ADP-Glo first removes unused ATP, then detects ADP through luciferase.
On to `Cc1nn(C2CN(C)C2)cc1Nc1ncc(C(F)(F)F)c(-c2cc(S(C)(=O)=O)cs2)n1` [Example 124, N-(3-methyl-1-(1-methylazetidin-3-yl)-1H-pyrazol-4-yl)-4-(4-(methylsulfonyl)thiophen-2-yl)-5-(trifluoromethyl)pyrimidin-2-amine], for which the IC50 (usually the point on the concentration scale where inhibition reaches its midpoint) lay within 100 to 500 nM.
As to `O=C1NCCS(=O)(=O)c2cc(-c3nc(Nc4cc5c(cc4Cl)CN(CC(F)(F)F)CC5)ncc3C(F)(F)F)sc21` [Example 125, 7-(2-((7-chloro-2-(2,2,2-trifluoroethyl)-1,2,3,4-tetrahydroisoquinolin-6-yl)amino)-5-(trifluoromethyl)pyrimidin-4-yl)-3,4-dihydrothieno[2,3-f][1,4]thiazepin-5(2H)-one 1,1-dioxide], the IC50 was in the range of 100 to 500 nM.
Next, `O=C1NCCS(=O)(=O)c2cc(-c3nc(Nc4cc5c(cc4Cl)CN(C4CC4)CC5)ncc3C(F)(F)F)sc21` [Example 126, 7-(2-((7-chloro-2-cyclopropyl-1,2,3,4-tetrahydroisoquinolin-6-yl)amino)-5-(trifluoromethyl)pyrimidin-4-yl)-3,4-dihydrothieno[2,3-f][1,4]thiazepin-5(2H)-one 1,1-dioxide]: 10 to 50 nM.
Next, `CS(=O)(=O)c1csc(-c2nc(Nc3cc4c(cc3Cl)CNCCC4)ncc2C(F)(F)F)c1` [Example 127, 8-chloro-N-(4-(4-(methylsulfonyl)thiophen-2-yl)-5-(trifluoromethyl)pyrimidin-2-yl)-2,3,4,5-tetrahydro-1H-benzo[c]azepin-7-amine]: no more than 10 nM.
In the case of `CS(=O)(=O)c1csc(-c2nc(Nc3cn(C4CCNCC4)nc3C3CC3)ncc2C(F)(F)F)c1` [Example 128, N-(3-Cyclopropyl-1-(piperidin-4-yl)-1H-pyrazol-4-yl)-4-(4-(methylsulfonyl)thiophen-2-yl)-5-(trifluoromethyl)pyrimidin-2-amine] it was no more than 10 nM; in that of `CN1CCC(n2cc(Nc3ncc(C(F)(F)F)c(-c4cc(S(C)(=O)=O)cs4)n3)c(C3CC3)n2)CC1` [Example 129, N-(3-cyclopropyl-1-(1-methylpiperidin-4-yl)-1H-pyrazol-4-yl)-4-(4-(methylsulfonyl)thiophen-2-yl)-5-(trifluoromethyl)pyrimidin-2-amine], no more than 10 nM.
For `CS(=O)(=O)c1csc(-c2nc(Nc3cc4c(cc3C3CC3)CNC4)ncc2C(F)(F)F)c1` [Example 131, 6-cyclopropyl-N-(4-(4-(methylsulfonyl)thiophen-2-yl)-5-(trifluoromethyl)pyrimidin-2-yl)isoindolin-5-amine], the IC50 is no more than 10 nM.
As to `CS(=O)(=O)c1csc(-c2nc(Nc3cc4c(cc3C3CC3)CNCC4)ncc2C(F)(F)F)c1` [Example 132, 7-cyclopropyl-N-(4-(4-(methylsulfonyl)thiophen-2-yl)-5-(trifluoromethyl)pyrimidin-2-yl)-1,2,3,4-tetrahydroisoquinolin-6-amine], the IC50 is no more than 10 nM.
In the case of `CN1CCCc2cc(Nc3ncc(C(F)(F)F)c(-c4cc(S(C)(=O)=O)cs4)n3)c(Cl)cc2C1` [Example 133, 8-chloro-2-methyl-N-(4-(4-(methylsulfonyl)thiophen-2-yl)-5-(trifluoromethyl)pyrimidin-2-yl)-2,3,4,5-tetrahydro-1H-benzo[c]azepin-7-amine] it was no more than 10 nM; in that of `CCN1CCS(=O)(=O)c2cc(-c3nc(Nc4cc5c(cc4Cl)CNCC5)ncc3C(F)(F)F)sc2C1=O` [Example 135, 7-(2-((7-chloro-1,2,3,4-tetrahydroisoquinolin-6-yl)amino)-5-(trifluoromethyl)pyrimidin-4-yl)-4-ethyl-3,4-dihydrothieno[2,3-f][1,4]thiazepin-5(2H)-one 1,1-dioxide], no more than 10 nM.
Next, `O=C1NCCOc2sc(-c3nc(Nc4cc5c(cc4Cl)CN(C(=O)C(F)(F)F)CC5)ncc3C(F)(F)F)cc21` [compound 70]: 10 to 50 nM; `CS(=O)(=O)c1cc(-c2nc(Nc3cc4c(cc3Cl)CN(C(=O)C(F)(F)F)CC4)ncc2C(F)(F)F)sc1C1=CCOCC1` [compound 74]: greater than 500 nM.
